Experiments:
Format in all cases: in vivo
[1] = tested on: rats subjected to burn injury; test: Organ injury and dysfunction induced by burn injury in the rat; settings: 3 mg/kg i.v. 30 min prior to and 30 min after burn injury, 6 h after burn
Description: Twenty-two male Wistar rats (Harlan, Udine, Italy) weighing 300 to 350 g were anaesthetised with sodium pentobarbital (Eutasil™, 60 mg/kg i.p.; Sanofi Veterinária, Algés, Portugal), which was supplemented as required. Anaesthetised rats were shaved (dorsum and abdomen) and placed onto a thermostatically controlled heating mat (Harvard Apparatus Ltd, Kent, U.K.) and body temperature maintained at 37±1° C. by means of a rectal probe attached to a homeothermic blanket. A tracheotomy was performed to maintain airway patency and to facilitate spontaneous respiration. Thirty minutes prior to burn injury, rats were treated with vehicle or drug, as described in section 3.2. To induce burn injury, a 60% third degree skin burn was induced by immersing dorsal shaved skin in 99° C. water for 10 s using a synthetic foam template. The rats were then dried and placed over the heating mat. Rats were sacrificed at 6 hours after burn injury by overdose of the anaesthetic and serum samples obtained for analysis of organ injury and dysfunction. Rats were randomly allocated into the following groups: • (i) Sham (n=4) • (ii) Burn+10% DMSO (n=10) • (iii) Burn+Artesunate (n=9) Sham-operated rats underwent identical surgical procedures but without burn injury (immersed in room temperature water). Animals received either 10% DMSO (1 ml/kg i.v.) or artesunate (3 mg/kg i.v.) 30 min prior to burn injury and 30 min after burn injury Each data point represents measurements obtained from up to 10 separate animals. Data was assessed using Mann-Whitney U test.

[2] = tested on: rats subjected to haemorrhagic shock; test: Organ injury and dysfunction induced by trauma haemorrhage (haemorrhagic shock) in the rat; settings: for rise in serum creatinine / rise in serum urea: 4 h after resuscitation; for rise in serum creatinine / rise in serum urea / rise in serum ALT / rise in serum AST / rise in serum creatinine kinase: vs HS-rats; for decline in MAP caused by haemorrhage during the resuscitation phase: vs HS Control
Description: Thirty-five male Wistar rats (271±5 g) were anaesthetised with sodium thiopentone (120 mg/kg i.p., LINK Pharmaceuticals Ltd., West Sussex, UK) and anaesthesia was maintained by supplementary injections (˜10 mg/kg i.v.) of sodium thiopentone as and when required. The animals were placed onto a thermostatically controlled heating mat (Harvard Apparatus Ltd., Kent, UK) and body temperature was maintained at 37±1° C. by means of a rectal probe attached to a homeothermic blanket. A tracheotomy was performed by inserting into the lumen of the trachea a small length of polyethylene tubing [Internal Diameter (ID) 1.67 mm, Portex, Kent, UK] to maintain airway patency and facilitate spontaneous respiration. […] The right carotid artery was cannulated (ID 0.58 mm, Portex) to facilitate the withdrawal of blood using a heparinised syringe. The right jugular vein was cannulated (ID 0.40 mm, Portex) for the administration of Ringer's Lactate (RL), shed blood, test compounds and/or vehicle. The bladder was also cannulated (ID 0.76 mm, Portex) for the collection of urine. Upon completion of the surgical procedure, cardiovascular parameters were allowed to stabilise for a period of 15 min.
After the stabilisation period, blood was withdrawn via the cannula inserted in the right carotid artery in order to achieve a fall in MAP to 35±5 mmHg within 10 min. From this point onwards, MAP was maintained at 35±5 mmHg for a period of 90 min either by further withdrawal of blood during the compensation phase (MAP rises following blood withdrawal due to sympathetic response) or administration of Ringer's Lactate i.v. during the decompensation phase (animals are unable to increase and maintain high MAP). […] At 90 min after initiation of haemorrhage, resuscitation was performed with 20 ml/kg Ringer's Lactate i.v. over a period of 10 min and then half the shed blood mixed with 100 u/ml heparinised saline i.v. over a period of 50 min. At the end of 1 h resuscitation, an i.v. infusion of Ringer's Lactate (1.5 ml/kg/h) was started as fluid replacement and maintained for a further 3 h.
Four hours after the onset of resuscitation, 1.2 ml blood was collected from the right carotid artery and decanted into serum gel tubes (Sarstedt, Numbrecht, Germany), after which the heart was removed to terminate the experiment. The samples were centrifuged (9900 rpm for 3 min) to separate serum from which urea, creatinine, aspartate aminotransferase (AST), alanine aminotransferase (ALT) and creatinine kinase (CK) were measured within 24 hours (Idexx Laboratories Ltd., West Yorkshire, UK). Urine collected during the last 3 h of the experiment was analysed for creatinine levels in order to estimate creatinine clearance as an indicator of glomerular dysfunction and was calculated as follows:
[formula] 1.4 Experimental Design
Rats were randomly allocated into the following groups: • (i) Sham (n=4) • (ii) HS Control (n=10) • (iii) HS+Artesunate 1 mg/kg (n=6) • (iv) HS+Artesunate 3 mg/kg (n=7) • (v) HS+Artesunate 10 mg/kg (n=8)
Sham-operated rats underwent identical surgical procedures but without haemorrhage or resuscitation. Animals received either 10% DMSO (1 ml/kg i.v.) or artesunate (1, 3 or 10 mg/kg i.v.) on resuscitation.
All values described in the text and figures are expressed as mean±standard error of the mean (SEM) for n observations. Each data point represents biochemical measurements obtained from up to 10 separate animals. Statistical analysis was carried out using GraphPad Prism 5.03 (GraphPad Software, San Diego, Calif., USA). Data without repeated measurements was assessed by one-way ANOVA followed by Dunnett's post hoc test. Data with repeated measurements was assessed by two-way ANOVA followed by Bonferroni's post hoc test. A P value of less than 0.05 was considered to be significant.

[3] = tested on: rats subjected to unilateral renal ischaemia/reperfusion; test: Late administration in a recovery rat model of unilateral renal ischaemia/reperfusion injury; settings: 0.3 mg/kg i.v. 24 h into reperfusion, measured at 48 h reperfusion, mean±SEM, P<0.05
Description: Thirty-one male Wistar rats (240-270 g, Charles River, Margate, U.K.) were used in this study. Rats were anaesthetised with a ketamine (100 mg/ml) and xylazine (20 mg/ml) mixture (2:1; 1.5 ml/kg, i.p.) and anaesthesia was maintained by supplementary injections (200 μg/kg i.p.) of ketamine/xylazine. Buprenorphine was administered at a dose of 0.1 mg/kg s.c. (0.5 ml/kg). Rats were then, placed onto a thermostatically controlled heating mat (Harvard Apparatus Ltd., Kent, U.K.) set at 37° C. A midline laparotomy was then performed. The anatomical right kidney was removed following permanent ligation of the renal artery and vein. The left renal pedicle (consisting of the renal artery, vein and nerve) was isolated and clamped using a non-traumatic microvascular clamp at time 0 for 30 min. Body temperature was maintained at 35±1° C. during ischaemia by means of measuring rectal temperature with a thermometer. After 30 min of unilateral renal ischaemia, the clamp was removed to allow reperfusion for 48 h. […]
Following the reperfusion period, ˜3.5 ml of blood was taken from the right ventricle of the heart via cardiac puncture into non-heparinised 5 ml syringes and immediately decanted into 1.3 ml serum gel tubes (Sarstedt, Germany). […] All biochemical markers in serum and urine were measured in a blinded fashion by a commercial veterinary testing laboratory (IDEXX Ltd, West Sussex, UK). […] Creatinine clearance is used as an indicator of glomerular dysfunction and is calculated as follows
Fractional excretion of sodium is used as an indicator of tubular dysfunction and is calculated as follows: […]
All data in the text and figures are presented as mean±SEM of n observations, where n represents the number of animals studied. All statistical analysis was calculated using GraphPad Prism 6 (GraphPad Software, San Diego, Calif., USA). Biochemical data was analysed by one-way ANOVA for data representing more than two groups, followed by a Dunnett's post hoc test for comparison of sham/treated groups with the control vehicle. […]

[4] = 1 mg/kg i.v. on resuscitation, P>0.05
[5] = 3 mg/kg i.v. on resuscitation, P<0.005
[6] = 3 mg/kg i.v. on resuscitation, P<0.05
[7] = 10 mg/kg i.v. on resuscitation, P<0.005
[8] = 10 mg/kg i.v. on resuscitation, P<0.05

## C[C@H]1[C@H](OC(=O)CCC(=O)O)O[C@@H]2O[C@@]3(C)CC[C@H]4[C@H](C)CC[C@@H]1[C@@]24OO3 [artesunate]
[1]; P>0.05
  rise in serum ALT: no significant effect
  rise in serum AST: no significant effect
[1]; vs burn + vehicle, P<0.05
  rise in serum creatinine: significantly attenuated
  rise in serum urea: significantly attenuated
[2]; [4]
  rise in serum creatinine: no significant effect
  rise in serum urea: no significant effect
  decline in MAP caused by haemorrhage during the resuscitation phase: failed to attenuate
  rise in serum ALT: no significant effect
  rise in serum AST: no significant effect
  rise in serum creatinine kinase: no significant effect
[2]; [5]
  rise in serum creatinine: significantly attenuated
  rise in serum ALT: significantly attenuated
[2]; [6]
  rise in serum urea: significantly attenuated
  rise in serum AST: significantly attenuated
  rise in serum creatinine kinase: significantly attenuated
[2]; 3 mg/kg i.v. on resuscitation, P>0.05
  decline in MAP caused by haemorrhage during the resuscitation phase: failed to attenuate
[2]; [7]
  rise in serum creatinine: significantly attenuated
  rise in serum ALT: significantly attenuated
[2]; 10 mg/kg i.v. on resuscitation, P>0.05
  decline in MAP caused by haemorrhage during the resuscitation phase: failed to attenuate
[2]; [8]
  rise in serum AST: significantly attenuated
  rise in serum creatinine kinase: significantly attenuated
[3]; IRI+Vehicle 4.45±0.65
  fractional excretion of sodium: 1.90±0.17%
[3]; IRI+Vehicle 34.13±2.23
  serum urea: 21.63 ± 1.51 mmol/L
[3]; IRI+Vehicle 205.90±22.23
  serum creatinine: 115.4 ± 9.72 µmol/L
